Like-named read-outs stand apart in the source and are kept apart here. Marks after values point to notes of the source that are not given here. Blank lines part the entries; values can stand above or below the molecule they belong to.
Legend:
[1] = Duodenal fluid volume via MRI, control vs PPI condition; assay type: in vivo, human; settings: for relative decrease in duodenal AUVC: first 180 min after Norvir tablet with 240 mL water, n = 5
Method: All volunteers provided written informed consent before participating in the trial. Each trial day, the participant came to the radiology department at the University Hospitals Leuven after an overnight fast (at least 12 h). Water was allowed until the night before the trial except for the volume needed to swallow the PPI tablet. For the PPI condition, participants were pre-treated with a once-daily dose of Nexium (just before breakfast) starting two days prior to the trial day. On the morning of the trial, the final Nexium tablet was taken 2 h prior to the arrival time at the hospital, with as little water as possible to swallow the tablet. […] A venous catheter was placed in the subject’s arm and a blank blood sample (5 mL) was collected in heparinized tubes (BD Vacutainer systems, Plymouth, UK). […] A scouting sequence was used in the coronal and transversal plane to allow correct sequence positioning. At each time point, three standardized sequences were used to acquire images; sequence parameters are depicted in Table 1. Images were taken during exhalation breath hold. Images were analysed using Horos™ (Version 3.3.6, Horos project), a free open source medical images viewer. […] This made the sequence unsuitable for fluid determination as the duodenum passes these blood vessels which would interfere with the outlining of the fluid present in the duodenum. Sequence 2 was therefore used as a localizer for the duodenum (i.e., determining the location of the duodenojejunal flexure (Figure 1). As free water lights up in a T2 weighted image, a trained operator semi-automatically traced all the bright spots in each slice for the stomach and duodenum, according to a published procedure. […] This cut-off value must be regarded as a rule of thumb and manual correction was made to account for bright organs like the gall bladder and obvious acquisition errors (e.g., illogical dark spots in the middle of a fluid filled stomach).

[2] = design: method as in PMID 32461076; settings: daily dose of 40 mg esomeprazole for three days; cited from earlier work
[3] = Gastric fluid volume via MRI, control vs PPI condition; assay type: in vivo, human; settings: for relative decrease in total gastric fluid volume (AUVC): first 180 min after Norvir tablet with 240 mL water, median, n = 5
Method: Each trial day, the participant came to the radiology department at the University Hospitals Leuven after an overnight fast (at least 12 h). Water was allowed until the night before the trial except for the volume needed to swallow the PPI tablet. For the PPI condition, participants were pre-treated with a once-daily dose of Nexium (just before breakfast) starting two days prior to the trial day. On the morning of the trial, the final Nexium tablet was taken 2 h prior to the arrival time at the hospital, with as little water as possible to swallow the tablet. […] A venous catheter was placed in the subject’s arm and a blank blood sample (5 mL) was collected in heparinized tubes (BD Vacutainer systems, Plymouth, UK). […] In addition, subjects were placed in a Philips 1.5 T MRI System (Philips, Best, The Netherlands) to assess the gastric and duodenal fluid volume, once before administration of the study medication and afterwards at predetermined time points, i.e., 20, 40, 60, 90, 120, 150 and 180 min.
Upon entering the MRI system, a rectangular dStream FlexCoverage Anterior coil (Ingenia 1.5 tesla, Philips, Best, The Netherlands) was placed on the torso of the subjects. A scouting sequence was used in the coronal and transversal plane to allow correct sequence positioning. […] Images were taken during exhalation breath hold.
Images were analysed using Horos™ (Version 3.3.6, Horos project), a free open source medical images viewer. Gastric and duodenal fluid volumes reported in this study were acquired with sequence 1. […] This made the sequence unsuitable for fluid determination as the duodenum passes these blood vessels which would interfere with the outlining of the fluid present in the duodenum.
As free water lights up in a T2 weighted image, a trained operator semi-automatically traced all the bright spots in each slice for the stomach and duodenum, according to a published procedure [21]. To differentiate between free water and other contents in the respective organs, a cut-off value (lower threshold) of 30% of the brightest voxel in either the stomach or the duodenum was applied. This cut-off value must be regarded as a rule of thumb and manual correction was made to account for bright organs like the gall bladder and obvious acquisition errors (e.g., illogical dark spots in the middle of a fluid filled stomach). Subsequently, a 3D image of the traced fluid was rendered and the fluid volume was calculated by adding up the fluid volumes of each slide (multiplying the surface area of the traced region of interest with the slice thickness).

[4] = Ritonavir plasma concentrations after oral intake of a Norvir tablet, control vs PPI condition (LC-MS/MS); assay type: in vivo, human; settings: for AUC0-480min / Tmax: one Norvir tablet oral, fasted, median (range), n = 4
Method: All volunteers provided written informed consent before participating in the trial. Each trial day, the participant came to the radiology department at the University Hospitals Leuven after an overnight fast (at least 12 h). Water was allowed until the night before the trial except for the volume needed to swallow the PPI tablet. For the PPI condition, participants were pre-treated with a once-daily dose of Nexium (just before breakfast) starting two days prior to the trial day. On the morning of the trial, the final Nexium tablet was taken 2 h prior to the arrival time at the hospital, with as little water as possible to swallow the tablet. A daily dose of 40 mg esomeprazole for three days has shown to elevate and sustain the gastric and duodenal pH to values around 7.1 and 7.5, respectively, indicative of the acid-inhibitory effect. A venous catheter was placed in the subject’s arm and a blank blood sample (5 mL) was collected in heparinized tubes (BD Vacutainer systems, Plymouth, UK). […] In addition, subjects were placed in a Philips 1.5 T MRI System (Philips, Best, The Netherlands) to assess the gastric and duodenal fluid volume, once before administration of the study medication and afterwards at predetermined time points, i.e., 20, 40, 60, 90, 120, 150 and 180 min.
Blood samples were stored on ice during the remainder of the study day, before centrifugation at 2880× g, for 10 min at 4 °C (Centrifuge 5804R, Eppendorf, Hamburg, Germany). Plasma was collected and stored at −20 °C pending analysis. For analysis, a liquid-liquid extraction was performed in which 50 µL of plasma was added to 450 µL HBSS and vortexed for a few seconds. Lopinavir was used as internal standard: 100 µL of a 200 nM stock solution in 25% v/v DMSO-water was added to the mixture. Before extraction, the pH was adjusted by adding 500 µL of 40 mM borax buffer (pH = 9), followed by 5 mL of the extraction medium hexane—ethyl acetate (50:50, v/v) and shaken for 1 min. The mixture was centrifugated at 2880× g, for 5 min at 4 °C and the organic layer was transferred to a new test tube and evaporated to dryness under a gentle airflow. The residue was redissolved in 1 mL of methanol and vortexed for 30 s before another evaporation cycle. The resulting residue was reconstituted in 200 µL methanol—water (50:50, v/v) awaiting analysis.
For the analysis, a Waters ACQUITY UHPLC H-Class system consisting of a quaternary pump was used combined with a Waters Xevo TQ-S micro mass spectrometer (Waters, Milford, MA, USA). Separation took place on a Kinetex® column (2.6 µm XB-C18 100 A, 50 × 2.1 mm, Phenomenex, Utrecht, the Netherlands) using isocratic elution with methanol—0.1% formic acid (65:35, v/v) followed by a wash gradient and re-equilibration (Table 2). Column temperature was set at 35 °C and samples were kept in the autosampler at 15 °C. […] Peaks were detected with MS/MS, using electrospray ionization (ESI) as ion source. […] Fragmentation was induced by collision with argon. The system was operated in multi-reaction monitoring (MRM) mode with the mass transitions according to Table 3.

[5] = cited from earlier work
[6] = design: method as in PMID 32461076; settings: median; esomeprazole pre-treatment, Norvir tablet; cited from earlier work
[7] = design: method as in PMID 18991471; settings: compared to esomeprazole, pantoprazole and rabeparzole; cited from earlier work
[8] = cited from earlier work; remark: listed apart in the source
[9] = PPI vs control condition, volunteer HV02
[10] = PPI vs control condition, median, present study

SMILES: COc1ccc2nc([S@@+]([O-])Cc3ncc(C)c(OC)c3C)[nH]c2c1 [esomeprazole]
duodenal fluid volume ([1]; PPI condition, after Norvir tablet with 240 mL water, median): 8.6 mL
relative decrease in duodenal AUVC ([1]; PPI vs control condition, median): 33%
relative decrease in duodenal AUVC ([1]; PPI vs control condition, median, listed as PPI): 33.3%
drop in duodenal fluid AUVC [1, 9]: 37%
decrease in duodenal fluid volume ([1]; after PPI treatment, average over all volunteers): 32%
duodenal pH [2]: ~7.5
gastric pH [2]: around 7.1
relative decrease in gastric residual volume (GRV) ([3]; PPI vs control condition, fasted, prior to ritonavir intake, five volunteers): 41%
relative decrease in total gastric fluid volume (AUVC) ([3]; PPI vs control condition): 44%
relative decrease in total gastric fluid volume (AUVC) ([3]; PPI vs control condition, listed as PPI): 43.9%
gastric residual volume (GRV) ([3]; following pre-treatment with esomeprazole 40 mg for three days, fasted state, mean ± SD): 20 ± 15 mL

PPI-induced decrease in Cmax [4, 10]: 39.0%
delay in tmax [4, 10]: 10%
drop in plasma AUC [4, 9]: 65%
Tmax ([4]; both sexes, human, plasma, po, 40 mg, PPI condition (esomeprazole 40 mg once daily for three days), read-out: tmax (converted)): 3.75 h
Cmax ([4]; both sexes, human, plasma, po, 100 mg): 1130 nM
Tmax ([4]; both sexes, human, plasma, po, 100 mg, control condition, read-out: tmax (converted)): 3.22 h
Tmax ([4]; control condition): 192.5 (175–240) min
SMILES: CC(C)c1nc(CN(C)C(=O)N[C@H](C(=O)N[C@@H](Cc2ccccc2)C[C@H](O)[C@H](Cc2ccccc2)NC(=O)OCc2cncs2)C(C)C)cs1 [ritonavir]
AUC0-480min ([4]; PPI condition (esomeprazole 40 mg once daily for three days)): 2.5 · 10^5 (1.2 · 10^5–3.2 · 10^5) nmol·min/L
AUC0-480min ([4]; control condition): 3.8 · 10^5 (2.6 · 10^5–5.9 · 10^5) nmol·min/L
Log P [5]: 4.3
pKa ([5]; weak base): 2.6
PPI-induced decrease in AUC0–480min [6]: 39.5%
PPI-induced decrease in Cmax [6]: 49.6%
delay in tmax [6]: 50%

SMILES: COc1ccc2[nH]c([S+]([O-])Cc3ncc(C)c(OC)c3C)nc2c1 (stereo not drawn) [omeprazole]
effect on the gastric fluid volume compared to other PPIs [7]: less pronounced effect on the gastric fluid volume
effect on plasma Cmax or AUC of ritonavir [8]: did not report an effect
